The values below come from PubChem BioAssay (NCI).

Test systems include RXF 393 renal; DMS 273 small cell lung; HOP-62 NSCLC; SNB-75 CNS; UO-31 renal; SF-295 CNS; KM20L2 colon; 786-0 renal; IGROV1 ovarian; M14 melanoma.
Common to all, as to experiment: NCI-60 cell line screen, 48 h

The structures appear in SMILES notation. Where “and” joins values, the source holds several entries; their conditions need not be identical. Equal entries are not always repeated.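 Where inhibition never reached the appropriate level, the endpoint shown equals the highest concentration tested. Otherwise, values were interpolated linearly from a five-concentration, 48-hour dose response in 96-well plates. The concentration for 50% growth inhibition is given as GI50. TGI: total growth inhibition.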

As to `Cn1c(=O)c(NC(=O)C(Cl)(Cl)Cl)nc2ccccc21`, the TGI in the assay with RXF 393 renal, in the assay on DMS 273 small cell lung, with HOP-62 NSCLC, in the assay with SNB-75 CNS, in the assay on UO-31 renal and in the assay with SF-295 CNS was greater than 100 µM throughout. Also, the TGI with KM20L2 colon, with 786-0 renal, in the assay with IGROV1 ovarian and in the assay on M14 melanoma was greater than 100 µM in each case.

With `COC(=O)C1=C(c2ccc(OC)c(OC)c2)OC(c2cc(OC)c(OC)c(OC)c2)C1` (stereo not drawn), the TGI is 66.9 µM with RXF 393 renal; greater than 100 µM in the assay with DMS 273 small cell lung; 47.4 µM with HOP-62 NSCLC; 25.6 µM with SNB-75 CNS; greater than 100 µM in the assay with UO-31 renal; greater than 100 µM in the assay with SF-295 CNS. Also, the TGI in the assay with KM20L2 colon was greater than 100 µM; in the assay on 786-0 renal, 74.4 µM; with IGROV1 ovarian, greater than 100 µM; in the assay with M14 melanoma, greater than 100 µM.

In the case of `O=C(CCC(=O)Nc1ccc(Cl)c(Cl)c1)CC(=O)c1ccc(F)cc1`, the TGI in the assay with RXF 393 renal, in the assay on DMS 273 small cell lung, in the assay with HOP-62 NSCLC, with UO-31 renal, in the assay with SF-295 CNS and in the assay on KM20L2 colon was greater than 100 µM throughout. In addition, the TGI in the assay with 786-0 renal, in the assay with IGROV1 ovarian and in the assay with M14 melanoma was greater than 100 µM throughout.

Consider `COc1cc(NS(C)(=O)=O)ccc1Nc1c2ccccc2nc2ccccc12`, for which the GI50 is 3.37 µM and 2.18 µM and 2.23 µM with RXF 393 renal; 0.0535 µM and 0.128 µM with DMS 273 small cell lung; 0.551 µM and 0.221 µM and 0.198 µM in the assay with HOP-62 NSCLC; 0.221 µM and 0.335 µM and 0.341 µM in the assay with SNB-75 CNS; 1.39 µM and 0.288 µM and 0.231 µM with UO-31 renal; 0.405 µM and 0.166 µM and 0.136 µM in the assay with SF-295 CNS. The GI50 in the assay on KM20L2 colon was 2.18 µM and 3.41 µM; in the assay with 786-0 renal, 0.458 µM and 0.279 µM and 0.27 µM; in the assay on IGROV1 ovarian, 1.59 µM and 1.44 µM and 0.826 µM; in the assay on M14 melanoma, 0.526 µM and 0.397 µM and 0.447 µM. The TGI is 2.72 µM and 12 µM and 2.02 µM in the assay with DMS 273 small cell lung; 12.1 µM and 15.3 µM and 5.78 µM with KM20L2 colon; 1.77 µM [middle of 8 runs] in the assay with 786-0 renal.

For the compound `CN(C)c1ccc(/C=C/c2ccc(/C=C/c3ccc(N(C)C)cc3)cc2)cc1`, the TGI in the assay with RXF 393 renal, in the assay on DMS 273 small cell lung, in the assay with SNB-75 CNS, with UO-31 renal, in the assay with SF-295 CNS and in the assay on KM20L2 colon was greater than 100 µM in each case. Further, the TGI with 786-0 renal, in the assay on IGROV1 ovarian and in the assay on M14 melanoma was greater than 100 µM throughout.

For the compound `C[N+](C)(C)CC1CCC/C1=N/O` (stereo not drawn), the TGI in the assay on RXF 393 renal, in the assay with DMS 273 small cell lung, with HOP-62 NSCLC, in the assay on SNB-75 CNS, with UO-31 renal and with SF-295 CNS was greater than 100 µM throughout. In addition, the TGI with KM20L2 colon was 49.4 µM; in the assay with 786-0 renal, 44.5 µM; in the assay with IGROV1 ovarian, greater than 100 µM; in the assay on M14 melanoma, greater than 100 µM.

As for `Cc1nnc2c3nnc(C)n3c3ccccc3n12`, the TGI in the assay on RXF 393 renal, with DMS 273 small cell lung, in the assay on HOP-62 NSCLC, in the assay with SNB-75 CNS, with UO-31 renal and in the assay on SF-295 CNS was greater than 100 µM in each case. The TGI in the assay with KM20L2 colon, in the assay with 786-0 renal, in the assay with IGROV1 ovarian and with M14 melanoma was greater than 100 µM throughout.

As for `N#CC1CCCCOCCOCCOCCOCCOCCCCCC1=O` (stereo not drawn), the TGI in the assay on RXF 393 renal, in the assay on DMS 273 small cell lung, in the assay on HOP-62 NSCLC, in the assay on SNB-75 CNS, with UO-31 renal and in the assay with SF-295 CNS was greater than 100 µM throughout. Also, the TGI in the assay with KM20L2 colon, in the assay on 786-0 renal, in the assay with IGROV1 ovarian and with M14 melanoma was greater than 100 µM throughout.

For `O=C(/C=C/c1ccco1)c1ccc(NCc2nc3ccccc3[nH]2)cc1`, the TGI in the assay with DMS 273 small cell lung stood at 35.8 µM; in the assay on HOP-62 NSCLC it was 35.6 µM; in the assay on SNB-75 CNS, 31.1 µM; in the assay with UO-31 renal, 27.3 µM; with SF-295 CNS, 31.1 µM; in the assay on KM20L2 colon, 35.1 µM. Moreover, the values for the TGI in the assay on 786-0 renal, with IGROV1 ovarian and in the assay on M14 melanoma were 32.5 µM, 34.1 µM and 30.9 µM, respectively.

For the compound `S=c1nc(COc2ccc(Cl)cc2Cl)[nH][nH]1`, the TGI in the assay on RXF 393 renal, in the assay with DMS 273 small cell lung, in the assay on SNB-75 CNS, in the assay with UO-31 renal, in the assay on SF-295 CNS and with KM20L2 colon was greater than 100 µM throughout. For the same compound, the TGI with 786-0 renal, with IGROV1 ovarian and in the assay on M14 melanoma was greater than 100 µM in each case.

In the case of `CS(=O)(=O)NNS(=O)(=O)c1ccccc1`, the TGI in the assay on RXF 393 renal, with DMS 273 small cell lung, in the assay on HOP-62 NSCLC, in the assay on SNB-75 CNS, with UO-31 renal and with SF-295 CNS was greater than 100 µM in each case. Besides, the TGI with KM20L2 colon, with 786-0 renal, in the assay on IGROV1 ovarian and in the assay on M14 melanoma was greater than 100 µM in each case.

`CC(=O)NC1C(OCc2ccccc2)OC(CO)C(O)C1OC(C)C(=O)N[C@@H](C)C(=O)N[C@H](CCC(=O)OCCNc1c2ccccc2nc2cccc([N+](=O)[O-])c12)C(N)=O` (stereo partly drawn): the TGI with RXF 393 renal was 0.00304 µM; in the assay on DMS 273 small cell lung it was 0.00433 µM; in the assay with SNB-75 CNS, 0.0405 µM and 0.00887 µM; with UO-31 renal it was 0.0107 µM; in the assay on SF-295 CNS it was 0.0339 µM; in the assay on KM20L2 colon, 0.00247 µM. Also, the TGI is 0.00335 µM and 0.00671 µM with 786-0 renal; 0.0679 µM and 0.022 µM with IGROV1 ovarian; 0.00251 µM in the assay on M14 melanoma.

Take `NC(=O)c1c([N+](=O)[O-])cc(C(F)(F)F)cc1[N+](=O)[O-]`: the TGI in the assay with RXF 393 renal, with DMS 273 small cell lung, in the assay on HOP-62 NSCLC, with SNB-75 CNS, in the assay on UO-31 renal and with SF-295 CNS was greater than 100 µM each time. Moreover, the TGI in the assay with KM20L2 colon was 93.5 µM; in the assay with 786-0 renal, greater than 100 µM; with IGROV1 ovarian it was greater than 100 µM; with M14 melanoma, greater than 100 µM.

Regarding `O=S(=O)(O)c1ccc(N=Nc2nc(C(F)(F)F)c(C(F)(F)F)[nH]2)cc1`, the TGI with RXF 393 renal is 32.9 µM; in the assay with DMS 273 small cell lung, greater than 100 µM; in the assay with HOP-62 NSCLC, greater than 100 µM; in the assay with SNB-75 CNS it was greater than 100 µM; in the assay with UO-31 renal, greater than 100 µM; in the assay on SF-295 CNS it was greater than 100 µM. Further, the TGI is greater than 100 µM in the assay with KM20L2 colon, greater than 100 µM with 786-0 renal, greater than 100 µM with IGROV1 ovarian and 46.6 µM in the assay on M14 melanoma.

With `O=C(CSc1ncn[nH]1)C[P+](c1ccccc1)(c1ccccc1)c1ccccc1`, the TGI with RXF 393 renal, in the assay on DMS 273 small cell lung, in the assay with HOP-62 NSCLC, in the assay with SNB-75 CNS, in the assay on UO-31 renal and with SF-295 CNS was greater than 100 µM each time. Besides, the TGI with KM20L2 colon, in the assay with 786-0 renal, in the assay on IGROV1 ovarian and in the assay with M14 melanoma was greater than 100 µM throughout.

As for `ON(Cc1ccccc1)C(=S)c1ccccc1`, the TGI with RXF 393 renal was 85.3 µM; in the assay on DMS 273 small cell lung, greater than 76.5 µM; in the assay with HOP-62 NSCLC, 42.9 µM; in the assay with SNB-75 CNS it was greater than 100 µM; in the assay on UO-31 renal it was 37.9 µM; in the assay on SF-295 CNS, greater than 45.3 µM. The TGI in the assay on KM20L2 colon is greater than 100 µM; in the assay on 786-0 renal, greater than 100 µM; with IGROV1 ovarian, greater than 100 µM; in the assay with M14 melanoma, 55.6 µM.

With `O=C1C2=C(c3ccccc31)C(c1ccccc1)N1C(=O)CSC1=N2` (stereo not drawn), the TGI in the assay with RXF 393 renal was 60.5 µM; with DMS 273 small cell lung, greater than 100 µM; in the assay with HOP-62 NSCLC, greater than 100 µM; in the assay on SNB-75 CNS, 67.7 µM; with UO-31 renal, greater than 100 µM; in the assay on SF-295 CNS, greater than 100 µM. The TGI in the assay with KM20L2 colon is greater than 100 µM; in the assay on 786-0 renal it was greater than 100 µM; with IGROV1 ovarian, greater than 100 µM; with M14 melanoma, greater than 96.6 µM.

`C#CC[N+](C)(CC#C)CC#C`: the TGI in the assay with RXF 393 renal, in the assay on DMS 273 small cell lung, in the assay on HOP-62 NSCLC, with SNB-75 CNS, in the assay with UO-31 renal and with SF-295 CNS was greater than 100 µM each time. The TGI with KM20L2 colon, with 786-0 renal, with IGROV1 ovarian and with M14 melanoma was greater than 100 µM throughout.

For `Cc1cccc(C(C)C)c1N1C(=O)C(=O)C(c2nc3ccccc3o2)C(=O)C1=O`, the TGI with RXF 393 renal, in the assay on DMS 273 small cell lung, in the assay on HOP-62 NSCLC, with SNB-75 CNS, in the assay on UO-31 renal and with SF-295 CNS was greater than 100 µM in each case. For the same compound, the TGI in the assay with KM20L2 colon, in the assay with 786-0 renal, with IGROV1 ovarian and with M14 melanoma was greater than 100 µM in each case.

As for `NC(=O)c1ccccc1NC(=O)C(=O)Cc1nc2ccccc2[nH]c1=O`, the TGI with RXF 393 renal, with DMS 273 small cell lung, in the assay on HOP-62 NSCLC, in the assay with SNB-75 CNS, in the assay on UO-31 renal and with SF-295 CNS was greater than 100 µM in each case. Besides, the TGI with KM20L2 colon, in the assay on 786-0 renal, in the assay with IGROV1 ovarian and with M14 melanoma was greater than 100 µM each time.

Take `CN(C)C(=Nc1nc(=[N+](C)C)ss1)N(C)C`: the TGI with RXF 393 renal, in the assay on DMS 273 small cell lung, with HOP-62 NSCLC, in the assay with SNB-75 CNS, in the assay on UO-31 renal and with SF-295 CNS was greater than 100 µM throughout. The TGI with KM20L2 colon, in the assay with 786-0 renal, with IGROV1 ovarian and with M14 melanoma was greater than 100 µM throughout.

Take `O=[N+]([O-])c1ccc(Cl)c(C2CC(c3cccc4ccccc34)=Nc3ccccc3S2)c1` (stereo not drawn): the TGI is 21.7 µM with RXF 393 renal; greater than 100 µM with DMS 273 small cell lung; greater than 100 µM in the assay with HOP-62 NSCLC; 60.5 µM in the assay on SNB-75 CNS; greater than 66.8 µM in the assay on UO-31 renal; greater than 94.1 µM with SF-295 CNS. The TGI is greater than 100 µM with KM20L2 colon, 30.4 µM in the assay with 786-0 renal, greater than 100 µM in the assay with IGROV1 ovarian and 63.4 µM in the assay with M14 melanoma.
